Consider 11 compounds from PubChem BioAssay (NCI).

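48-hour exposure; five concentrations; linearly interpolated endpoints. TGI: concentration producing complete growth inhibition.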

Common to all, as to experiment: NCI anticancer screen, dose series, 48 h
Assay [1] has as its system A549 NSCLC.
For assay [2], the system named is HT29 colon.
Assay [3] concerns HL-60(TB) leukemia.
Assay [4] has as its system SNB-19 CNS.
Assay [5] has as its system HS 578T breast.
The subject of assay [6] is MCF7 breast.
Assay [7] relates to SF-295 CNS.
Assay [8] concerns MDA-MB-231 breast.
Assay [9] concerns HOP-92 NSCLC.
Assay [10] concerns NCI-H23 lung.

Turning to `O=C(OCCNC(=O)N1CC1)OCCNC(=O)N1CC1`, the TGI in assay [1], in [2], in assay [3], in assay [4], in assay [5] and in assay [6] was over 10 µM each time. The TGI in [7], in [8], in assay [9] and in assay [10] was over 10 µM in each case.

Take `CCO/C=N/C1=C(C#N)SC2=N/C(=C\c3ccccc3)C(=O)N21`: the TGI in assay [1] was over 100 µM; in [2], over 100 µM; in [3], over 83.2 µM; in assay [4], over 100 µM; in assay [5] it was over 100 µM; in assay [6] it was over 100 µM. The TGI in [7], in assay [8], in [9] and in assay [10] was over 100 µM each time.

Turning to `CC(=O)CC1=C(OC(C)C)C2(OCCO2)C1O` (stereo not given), the TGI in [1], in [2], in [3], in assay [4], in [5] and in assay [6] was over 100 µM in each case. For the same compound, the TGI in assay [7], in assay [8], in assay [9] and in assay [10] was over 100 µM throughout.

In the case of `CCOC(=O)c1c(NC(=S)Nc2ccccc2)sc2c1CCOC2`, the TGI in [1], in assay [2], in assay [3], in [4], in assay [5] and in assay [6] was over 100 µM each time. Besides, the TGI was over 100 µM in [7], over 100 µM in assay [8], 89.4 µM in assay [9] and over 100 µM in [10].

Take `c1ccc(CSC2(SCc3ccccc3)CCCCC2)cc1`: the TGI in [1], in assay [2], in assay [3], in [4], in assay [5] and in assay [6] was over 10 µM throughout. Also, the TGI in assay [7], in [8], in [9] and in assay [10] was over 10 µM each time.

With `O=C(c1ccc(Cl)cc1)N(C(=S)OCCOc1ccccc1)c1ccccc1`, the TGI was 39.3 µM in [1]; 35.6 µM in [2]; 38.6 µM in assay [3]; 42.8 µM in [4]; over 100 µM in [5]; 32.4 µM in assay [6]. The TGI stood at 94 µM in assay [7], 75.6 µM in assay [8], 30.7 µM in [9] and 36.2 µM in assay [10].

As to `O=c1oc2cc(O)ccc2c(O)c1Cc1c(O)c2ccc(O)cc2oc1=O`, the TGI in assay [1], in [2], in assay [3], in assay [4], in assay [5] and in assay [6] was over 100 µM each time. The TGI in [7], in [8], in assay [9] and in assay [10] was over 100 µM each time.

Regarding `O=C(c1ccccc1)N1C(=S)N(c2ccccn2)C(=Nc2ccccc2)C1=Nc1ccccc1`, the TGI in [1] is over 100 µM; in assay [2], over 100 µM; in assay [3], 14.1 µM; in assay [4], over 96.2 µM; in assay [5] it was over 61.8 µM; in assay [6] it was over 100 µM. For the same compound, the TGI in assay [7] was over 73.8 µM; in [8], over 71.9 µM; in assay [9], 20.8 µM; in assay [10] it was over 36.5 µM.

For `C=C1C[C@H](O)[C@H](Br)C(C)(C)C12CCC(C)(Cl)C(Br)C2` (stereo not given in full), the TGI in [1] worked out at 9.12 µM; in [2], 0.895 µM; in assay [3] it was 13.4 µM; in assay [4], 10.4 µM; in assay [5], 23.6 µM; in assay [6] it was 11.2 µM. Moreover, the TGI in [7] amounted to 8.13 µM; in assay [8], 11.3 µM; in assay [9], 8.76 µM; in [10] it was 7.98 µM.

Take `CN(C)c1ccc(C=C2C(=O)NC(=S)NC2=O)c2ccccc12`: the TGI in assay [1] was over 100 µM; in assay [2] it was over 100 µM; in assay [3], over 100 µM; in assay [4], over 100 µM; in assay [5], 71.8 µM; in assay [6], over 100 µM. The TGI in assay [7] is over 100 µM; in [8], over 100 µM; in [9] it was 91.4 µM; in [10] it was over 100 µM.

Consider `COc1ccc(-c2oc3c(OC)c(OC)cc(O)c3c(=O)c2OC)cc1`, for which the TGI in assay [1], in assay [2], in [3], in [4], in assay [5] and in assay [6] was over 100 µM in each case. In addition, the TGI in assay [7], in assay [8], in [9] and in assay [10] was over 100 µM in each case.
